Measured values reported in US7825146B2, “Sulfonamide derivative having isoxazole ring” (Shionogi & Co., Ltd., priority 2003, dated 2010).

Assays:
Format in all cases: biochemical
[1] = molecular target: T1, MMP-8 (Homo sapiens, UniProt P22894); test: Assay for inhibitory activities on MMPs (fluorogenic MOCAc peptide substrate): MMP-8; conditions: catalytic domain 99Phe-262Gly
T1 construct: In regard to MMP-8, catalytic domain (^99Phe˜^262Gly) was amplified with PCR; His-tag; enterokinase digestion-site; made in house
T1 sequence (P22894 99-262): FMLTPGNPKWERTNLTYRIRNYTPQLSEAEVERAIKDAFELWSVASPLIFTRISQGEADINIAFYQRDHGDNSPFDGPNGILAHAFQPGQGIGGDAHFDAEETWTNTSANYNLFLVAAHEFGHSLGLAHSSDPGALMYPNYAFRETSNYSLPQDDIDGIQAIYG
Excerpt: In regard to MMP-8, catalytic domain (^99Phe˜^262Gly) was amplified with PCR using commercial available Human Bone Marrow cDNA. This was cloned in Escherichia. coli expression vector pTrc99AHE inserted with His-tag sequence and enterokinase digestion-site, induced and expressed by IPTG (Isdpropyl-β-D-thiogalactopyranoside) and expressed in a insoluble fraction (Thau F. Ho, M. Walid Qoronfleh, Robert C. Wahl, Trica A. Pulvino, Karen J. Vavra, Joe Falvo, Tracey M. Banks, Patricia G. Brake and Richard B. Ciccarelli: Gene expression, purification and characterization of recombinant human neutrophil collagenase. Gene 146, (1994) 297-301, Prepared by the a improved method of this material). Isolation of MMP-8 from an insoluble fraction was carried out by dissolving in modifier (6M urea) by a usual method and purification with metal chelate chromatography. And then removing modifier (6M urea) with dialysis and refolding of the enzyme spontaneously gave activated MMP-8.
(§1) The enzymatic activity on MMPs was analyzed by the method described in “C. Graham Knight, Frances Willenbrock and Gillian Murphy: A novel coumarin-labelled peptide for sensitive continuous assays of the matrix metalloproteinases: FEBS LETT., 296, (1992), 263-266”. The substrate: MOCAc-Pro-Leu-Gly-Leu-A2Pr(DNP)-Ala-Arg-NH2 was purchased from Peptide Institute, Inc., Osaka, Japan. The measurement of the inhibitory activities (IC50) was carried out by the following four methods; • (A) Reaction with substrate, enzyme (MMPs) and inhibitor • (B) Reaction with substrate and inhibitor, without enzyme • (C) Reaction with substrate and enzyme (MMPs), without inhibitor • (D) Reaction with substrate only IC50 values were calculated by using the following formula and each fluorescence values of above four methods (A to D).
(§2) The value of inhibitory activity against MMP-2, MMP-8, MMP-9, MMP-12, and MMP-13 measured by above mentioned methods are shown in Table 36, 37, 38, 39, and 40 respectively.

[2] = molecular target: T2, MMP-12 (Homo sapiens, UniProt P39900); test: Assay for inhibitory activities on MMPs (fluorogenic MOCAc peptide substrate): MMP-12; conditions: catalytic domain 100Phe-263Gly
T2 construct: In regard to MMP-12, catalytic domain(^100Phe˜^263Gly) was amplified with RT-PCR; His-tag; enterokinase digestion-site; made in house
T2 sequence (P39900 100-263): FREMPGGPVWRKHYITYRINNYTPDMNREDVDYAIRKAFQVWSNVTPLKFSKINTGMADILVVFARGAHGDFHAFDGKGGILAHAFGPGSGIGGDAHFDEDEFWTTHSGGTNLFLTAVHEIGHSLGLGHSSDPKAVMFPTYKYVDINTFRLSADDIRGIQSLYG
Description: (§3) In regard to MMP-12, catalytic domain(^100Phe˜^263Gly) was amplified with RT-PCR from Human Placenta Total RNA. This was cloned in Escherichia. coli expression vector pTrc99AHE inserted with His-tag sequence and enterokinase digestion-site, induced and expressed by IPTG (Isopropyl-β-D-thiogalactopyranoside) and expressed in a insoluble fraction. Isolation of MMP-12 from an insoluble fraction was carried out by dissolving in modifier (6M urea) by a usual method and purification with metal chelate chromatography (Ni Chelateing Sepharose). And then removing modifier (6M urea) with dialysis and refolding of the enzyme spontaneously gave activated MMP-12.
as §1, §2

[3] = molecular target: T3, MMP-13 (Homo sapiens, UniProt P45452); test: Assay for inhibitory activities on MMPs (fluorogenic MOCAc peptide substrate): MMP-13; conditions: Table 40
T3 construct: catalytic domain (^104Tyr˜^267Gly) was amplified with RT-PCR; His-tag; enterokinase digestion-site; made in house
Description: as §3, with “MMP-13, mRNA was prepared from carcinoma cell SW1353 derived from human cartilage stimulate by IL-1, TNF and” for “MMP-12,”, “domain (^104Tyr˜^267Gly)” for “domain(^100Phe˜^263Gly)”, “RT-PCR.” for “RT-PCR from Human Placenta Total RNA.”, “MMP-13” for “MMP-12”, “dialyze” for “dialysis”, “MMP-13.” for “MMP-12.”
as §1, §2

Row | Compound | IC50 [1] [µM] | IC50 [2] [µM] | IC50 [3] [µM]
1 | CCC(C)[C@H](NS(=O)(=O)c1ccc(-c2cc(-c3ccc(SC)cc3)on2)cc1)C(=O)O (stereo partly drawn) [Example C-97] | 0.00421 | 0.000239 | 0.000578
2 | COc1ccc(-c2cc(-c3ccc(S(=O)(=O)N[C@@H](CC(C)C)C(=O)O)cc3)on2)cc1F [Example A-79] | 0.00111 | 0.000622 | 
3 | CC(C)C[C@@H](NS(=O)(=O)c1ccc(-c2cc(-c3ccc(Cl)s3)on2)cc1)C(=O)O [Example C-78] | 0.00463 |  | 
4 | CCC(C)[C@H](NS(=O)(=O)c1ccc(-c2cc(-c3ccc(Cl)c(Cl)c3)on2)cc1)C(=O)O (stereo partly drawn) [Example C-104] | 0.00489 | 0.000281 | 
5 | CC(C)c1ccc(-c2cc(-c3ccc(S(=O)(=O)N[C@H](C(=O)O)C(C)C)cc3)no2)cc1 [Example C-16] |  | 0.000287 | 0.000403
6 | CCc1ccc(-c2cc(-c3ccc(S(=O)(=O)N[C@@H](C(=O)O)C(C)C)cc3)on2)cc1 [Example A-26] |  |  | 0.000943
7 | CCCCc1ccc(-c2cc(-c3ccc(S(=O)(=O)N[C@@H](C(=O)O)C(C)C)cc3)no2)cc1 [Example C-17] | 0.00421 | 0.000239 | 0.000578
8 | CC(C)[C@H](NS(=O)(=O)c1ccc(-c2cc(-c3ccc(Cl)c(F)c3)on2)cc1)C(=O)O [Example C-37] | 0.00433 | 0.000172 | 
9 | CC(C)C[C@H](NS(=O)(=O)c1ccc(-c2cc(-c3ccc(Cl)s3)on2)cc1)C(=O)O [Example C-79] | 0.00286 | 0.0008 | 
10 | CC(C)C[C@H](NS(=O)(=O)c1ccc(-c2cc(-c3ccc4c(c3)CCO4)on2)cc1)C(=O)O [Example C-91] | 0.00108 | 0.000184 | 
11 | CCc1ccc(-c2cc(-c3ccc(S(=O)(=O)N[C@H](C(=O)O)C(C)CC)cc3)no2)s1 (stereo partly drawn) [Example C-99] |  | 0.000649 | 0.000971
12 | CC(C)[C@@H](NS(=O)(=O)c1ccc(-c2cc(-c3ccc4c(c3)OCO4)on2)cc1)C(=O)O [Example C-44] | 0.00359 | 0.000649 | 
13 | CC(C)[C@H](NS(=O)(=O)c1ccc(-c2cc(-c3ccc4c(c3)OCO4)on2)cc1)C(=O)O [Example C-45] | 0.00366 | 0.000641 | 
14 | CC(C)C[C@@H](NS(=O)(=O)c1ccc(-c2cc(-c3ccc(C(C)C)cc3)on2)cc1)C(=O)O [Example C-59] |  |  | 0.000889
15 | CC(C)C[C@H](NS(=O)(=O)c1ccc(-c2cc(-c3ccc4c(c3)OCO4)on2)cc1)C(=O)O [Example C-86] | 0.00478 | 0.000545 | 
16 | CCC(C)[C@H](NS(=O)(=O)c1ccc(-c2cc(-c3ccc(OC(F)(F)F)cc3)on2)cc1)C(=O)O (stereo partly drawn) [Example C-102] |  | 0.00014 | 0.000837
17 | CCC(C)[C@H](NS(=O)(=O)c1ccc(-c2cc(-c3ccc(Cl)s3)on2)cc1)C(=O)O (stereo partly drawn) [Example C-100] | 0.00111 |  | 
18 | CCc1ccc(-c2cc(-c3ccc(S(=O)(=O)N[C@H](CC(=O)O)C(=O)O)cc3)no2)cc1 [Example C-113] |  |  | 0.000733
19 | Cc1ccc(-c2cc(-c3ccc(S(=O)(=O)N[C@@H](C(=O)O)C(C)(C)C)cc3)no2)s1 [Example C-110] | 0.00252 |  | 
20 | CC(C)[C@H](NS(=O)(=O)c1ccc(-c2cc(-c3ccc(Cl)c(Cl)c3)on2)cc1)C(=O)O [Example C-41] | 0.00379 | 0.000294 | 
21 | CCc1ccc(-c2cc(-c3ccc(S(=O)(=O)N[C@H](C(=O)O)C(C)CC)cc3)no2)cc1 (stereo partly drawn) [Example C-95] |  | 0.000172 | 0.000702
22 | COc1ccc(-c2cc(-c3ccc(S(=O)(=O)N[C@@H](C(=O)O)C(C)C)cc3)no2)cc1 [Example C-18] | 0.00419 | 0.000384 | 0.000853
23 | COc1ccc(-c2cc(-c3ccc(S(=O)(=O)N[C@H](C(=O)O)C(C)C)cc3)no2)cc1 [Example C-19] | 0.00397 | 0.000447 | 

Row | Compound | IC50 [1] [µM] | IC50 [2] [µM] | IC50 [3] [µM]
24 | Cc1ccc(-c2cc(-c3ccc(S(=O)(=O)N[C@@H](CC(C)C)C(=O)O)cc3)no2)s1 [Example C-75] | 0.00198 | 0.000677 | 
25 | CCCc1ccc(-c2cc(-c3ccc(S(=O)(=O)N[C@H](CC(=O)O)C(=O)O)cc3)no2)cc1 [Example C-114] |  | 0.000578 | 0.000223
26 | CC(C)c1ccc(-c2cc(-c3ccc(S(=O)(=O)N[C@H](Cc4c[nH]c5ccccc45)C(=O)O)cc3)on2)cc1 [Example A-111] |  |  | 0.000465
27 | CC(C)[C@@H](NS(=O)(=O)c1ccc(-c2cc(-c3ccc(C(F)(F)F)cc3)on2)cc1)C(=O)O [Example C-27] |  | 0.000316 | 0.000758
28 | CCC(C)[C@H](NS(=O)(=O)c1ccc(-c2cc(-c3ccc(C)s3)on2)cc1)C(=O)O (stereo partly drawn) [Example C-98] | 0.00103 | 0.000629 | 
29 | CSc1ccc(-c2cc(-c3ccc(S(=O)(=O)N[C@H](C(=O)O)C(C)C)cc3)no2)cc1 [Example C-11] |  | 0.000289 | 0.000739
30 | Cc1ccc(-c2cc(-c3ccc(S(=O)(=O)N[C@H](CC(C)C)C(=O)O)cc3)no2)s1 [Example C-74] | 0.00416 |  | 
31 | CC(C)[C@@H](NS(=O)(=O)c1ccc(-c2cc(-c3ccc4c(c3)CCO4)on2)cc1)C(=O)O [Example C-47] | 0.00107 | 0.000264 | 
32 | CC(C)[C@H](NS(=O)(=O)c1ccc(-c2cc(-c3ccc4c(c3)CCO4)on2)cc1)C(=O)O [Example C-48] | 0.000892 | 0.0002 | 
33 | CC(C)C[C@H](NS(=O)(=O)c1ccc(-c2cc(-c3ccc(C(C)C)cc3)on2)cc1)C(=O)O [Example C-60] |  | 0.000335 | 0.000919
34 | Cc1ccc(-c2cc(-c3ccc(S(=O)(=O)N[C@H](C(=O)O)C(C)C)cc3)no2)s1 [Example C-30] | 0.00124 | 0.000758 | 
35 | COc1ccc(-c2cc(-c3ccc(S(=O)(=O)N[C@@H](C(=O)O)C(C)C)cc3)no2)cc1F [Example C-51] | 0.00263 | 0.000266 | 0.000836
36 | CC(C)[C@H](NS(=O)(=O)c1ccc(-c2cc(-c3ccc(Cl)s3)on2)cc1)C(=O)O [Example C-34] | 0.00177 | 0.000866 | 
37 | COc1ccc(-c2cc(-c3ccc(S(=O)(=O)N[C@@H](C(=O)O)C(C)C)cc3)on2)cc1Cl [Example A-56] | 0.00397 | 0.000898 | 
38 | CC(C)C[C@H](NS(=O)(=O)c1ccc(-c2cc(-c3ccc(Cl)c(Cl)c3)on2)cc1)C(=O)O [Example C-88] | 0.00437 | 0.000184 | 
39 | CSCC[C@@H](NS(=O)(=O)c1ccc(-c2cc(-c3ccc(OC(F)(F)F)cc3)no2)cc1)C(=O)O [Example A-108] |  | 0.000764 | 0.000635
40 | O=C(O)C[C@@H](NS(=O)(=O)c1ccc(-c2cc(-c3ccc(C(F)(F)F)cc3)on2)cc1)C(=O)O [Example C-115] |  |  | 0.000643
41 | CCc1ccc(-c2cc(-c3ccc(S(=O)(=O)N[C@H](C(=O)O)C(C)C)cc3)no2)cc1 [Example C-13] |  | 0.000201 | 0.000757
42 | CC(C)[C@H](NS(=O)(=O)c1ccc(-c2cc(-c3ccc(OC(F)(F)F)cc3)on2)cc1)C(=O)O [Example C-26] |  | 0.000148 | 0.000884
43 | CCC(C)[C@H](NS(=O)(=O)c1ccc(-c2cc(-c3ccc(OC)cc3)on2)cc1)C(=O)O (stereo partly drawn) [Example C-96] | 0.00229 | 0.000228 | 
44 | CSCC[C@@H](NS(=O)(=O)c1ccc(-c2cc(-c3ccc(C(C)C)cc3)no2)cc1)C(=O)O [Example A-107] |  |  | 0.000658
45 | Cc1ccc(-c2cc(-c3ccc(S(=O)(=O)N[C@H](CC(=O)O)C(=O)O)cc3)no2)s1 [Example C-116] | 0.0023 |  | 
46 | CSc1ccc(-c2cc(-c3ccc(S(=O)(=O)N[C@@H](CC(C)C)C(=O)O)cc3)no2)cc1 [Example C-62] |  | 0.00029 | 
